Earlier results, collected in patent US20160133992A1, “DRYING OF ELECTROLYTE MIXTURES CONTAINING ACIDS WITH MOLECULAR SIEVES” (BASF SE, priority 2013, published 2016).
Where two headings read alike, the source gives them in different places.

CCCCC(CCO)S(=O)(=O)O (stereo not shown) [1-Butyl-gamma-hydroxy propane sulfonic acid]
pKa: below 4

CCC(CCCO)S(=O)(=O)O (stereo not shown) [1-Ethyl-4-hydroxy-1-butane sulfonic acid]
pKa: below 4

CCC(CCO)S(=O)(=O)O (stereo not shown) [1-Ethyl-gamma-hydroxy propane sulfonic acid]
pKa: below 4

CC(CCCO)S(=O)(=O)O (stereo not shown) [1-Methyl-4-hydroxy-1-butane sulfonic acid]
pKa: below 4

CC(CCO)S(=O)(=O)O (stereo not shown) [1-Methyl-gamma-hydroxy propane sulfonic acid]
pKa: below 4

CCCCCCCCC(CCCO)S(=O)(=O)O (stereo not shown) [1-Octyl-4-hydroxy-1-butane sulfonic acid]
pKa: below 4

CCCC(CCO)S(=O)(=O)O (stereo not shown) [1-Propyl-gamma-hydroxy propane sulfonic acid]
pKa: below 4

O=S(=O)(O)CCCCO [4-hydroxy-1-butane sulfonic acid]
pKa: −1,7

O=S(=O)(O)CCCCCO [5-hydroxy-1-pentane sulfonic acid]
pKa: below 4

O=S(=O)(O)CCCO [gamma-hydroxy propane sulfonic acid]
pKa (listed as compound of formula (b)): −1.49
